Laboratory results reported in the NIST ThermoML archive (doi:10.1021/je0499364).
± gives the expanded uncertainty stated by the source.

Key:
[1] = Crystal
[2] = Molar enthalpy of transition or fusion; conditions: Crystal
[3] = molar heat capacity at constant pressure; conditions: 101.33 kPa

Row | Compound | Triple point temperature [1] | Molar enthalpy of transition or fusion [2] | molar heat capacity at constant pressure ([3]; 5 K, Crystal) | molar heat capacity at constant pressure ([3]; 10 K, Crystal) | molar heat capacity at constant pressure ([3]; 20 K, Crystal) | molar heat capacity at constant pressure ([3]; 30 K, Crystal) | molar heat capacity at constant pressure ([3]; 40 K, Crystal) | molar heat capacity at constant pressure ([3]; 50 K, Crystal) | molar heat capacity at constant pressure ([3]; 60 K, Crystal) | molar heat capacity at constant pressure ([3]; 70 K, Crystal) | molar heat capacity at constant pressure ([3]; 80 K, Crystal) | molar heat capacity at constant pressure ([3]; 90 K, Crystal) | molar heat capacity at constant pressure ([3]; 100 K, Crystal) | molar heat capacity at constant pressure ([3]; 110 K, Crystal) | molar heat capacity at constant pressure ([3]; 120 K, Crystal) | molar heat capacity at constant pressure ([3]; 130 K, Crystal) | molar heat capacity at constant pressure ([3]; 140 K, Crystal) | molar heat capacity at constant pressure ([3]; 150 K, Crystal) | molar heat capacity at constant pressure ([3]; 160 K, Crystal) | molar heat capacity at constant pressure ([3]; 170 K, Crystal) | also measured
1 | CCCCCCCCCCCCCC(=O)OC [methyl tetradecanoate] | 292.14 ± 0.16 K | 12.43 ± 0.124 kcal/mol | 0.55 ± 0.03 J/K/mol | 4.56 ± 0.1 J/K/mol | 21.34 ± 0.26 J/K/mol | 43.99 ± 0.26 J/K/mol | 69.2 ± 0.36 J/K/mol | 93.62 ± 0.46 J/K/mol | 113.9 ± 0.54 J/K/mol | 133.41 ± 0.61 J/K/mol | 150.35 ± 0.68 J/K/mol | 165.54 ± 0.73 J/K/mol | 179.38 ± 0.76 J/K/mol | 192.06 ± 0.78 J/K/mol | 203.55 ± 0.81 J/K/mol | 214.52 ± 0.83 J/K/mol | 224.93 ± 0.85 J/K/mol | 235.23 ± 0.87 J/K/mol | 244.79 ± 0.89 J/K/mol | 254.91 ± 0.91 J/K/mol | molar heat capacity at constant pressure ([3]; 180 K, Crystal): 265.19 ± 0.93 J/K/mol; molar heat capacity at constant pressure ([3]; 190 K, Crystal): 275.63 ± 0.95 J/K/mol; molar heat capacity at constant pressure ([3]; 200 K, Crystal): 286.07 ± 0.97 J/K/mol; molar heat capacity at constant pressure ([3]; 210 K, Crystal): 296.67 ± 0.99 J/K/mol; molar heat capacity at constant pressure ([3]; 220 K, Crystal): 308.85 ± 1 J/K/mol; molar heat capacity at constant pressure ([3]; 230 K, Crystal): 321.05 ± 1 J/K/mol; molar heat capacity at constant pressure ([3]; 240 K, Crystal): 334.49 ± 1.1 J/K/mol; molar heat capacity at constant pressure ([3]; 250 K, Crystal): 349.48 ± 1.1 J/K/mol; molar heat capacity at constant pressure ([3]; 260 K, Crystal): 368.64 ± 1.1 J/K/mol; molar heat capacity at constant pressure ([3]; 270 K, Crystal): 388.14 ± 1.2 J/K/mol; molar heat capacity at constant pressure ([3]; 280 K, Crystal): 429.3 ± 1.3 J/K/mol; molar heat capacity at constant pressure ([3]; 300 K, Liquid): 500.03 ± 1.4 J/K/mol; molar heat capacity at constant pressure ([3]; 310 K, Liquid): 504.66 ± 1.4 J/K/mol; molar heat capacity at constant pressure ([3]; 320 K, Liquid): 510 ± 1.4 J/K/mol; molar heat capacity at constant pressure ([3]; 330 K, Liquid): 515.86 ± 1.4 J/K/mol; molar heat capacity at constant pressure ([3]; 340 K, Liquid): 522.03 ± 1.4 J/K/mol; molar heat capacity at constant pressure ([3]; 350 K, Liquid): 528.04 ± 1.5 J/K/mol
2 | CCCCCCCCCCCCC(=O)OC [methyl tridecanoate] | 279.07 ± 0.16 K | 10.9 ± 0.124 kcal/mol | 0.53 ± 0.03 J/K/mol | 4.03 ± 0.09 J/K/mol | 19.77 ± 0.24 J/K/mol | 41.39 ± 0.25 J/K/mol | 65.69 ± 0.35 J/K/mol | 89.16 ± 0.44 J/K/mol | 108.8 ± 0.52 J/K/mol | 127.88 ± 0.59 J/K/mol | 144.45 ± 0.66 J/K/mol | 158.95 ± 0.72 J/K/mol | 171.63 ± 0.74 J/K/mol | 183.91 ± 0.77 J/K/mol | 195.21 ± 0.79 J/K/mol | 205.64 ± 0.81 J/K/mol | 215.67 ± 0.83 J/K/mol | 225.37 ± 0.85 J/K/mol | 234.95 ± 0.87 J/K/mol | 244.5 ± 0.89 J/K/mol | molar heat capacity at constant pressure ([3]; 180 K, Crystal): 254.1 ± 0.91 J/K/mol; molar heat capacity at constant pressure ([3]; 190 K, Crystal): 264.04 ± 0.93 J/K/mol; molar heat capacity at constant pressure ([3]; 200 K, Crystal): 274.24 ± 0.95 J/K/mol; molar heat capacity at constant pressure ([3]; 210 K, Crystal): 284.88 ± 0.97 J/K/mol; molar heat capacity at constant pressure ([3]; 220 K, Crystal): 296.06 ± 0.99 J/K/mol; molar heat capacity at constant pressure ([3]; 230 K, Crystal): 307.94 ± 1 J/K/mol; molar heat capacity at constant pressure ([3]; 240 K, Crystal): 321.07 ± 1 J/K/mol; molar heat capacity at constant pressure ([3]; 250 K, Crystal): 336.07 ± 1.1 J/K/mol; molar heat capacity at constant pressure ([3]; 260 K, Crystal): 350.98 ± 1.1 J/K/mol; molar heat capacity at constant pressure ([3]; 270 K, Crystal): 371.61 ± 1.1 J/K/mol; molar heat capacity at constant pressure ([3]; 290 K, Liquid): 463.91 ± 1.3 J/K/mol; molar heat capacity at constant pressure ([3]; 300 K, Liquid): 469.05 ± 1.3 J/K/mol; molar heat capacity at constant pressure ([3]; 310 K, Liquid): 473.89 ± 1.4 J/K/mol; molar heat capacity at constant pressure ([3]; 320 K, Liquid): 479.3 ± 1.4 J/K/mol; molar heat capacity at constant pressure ([3]; 330 K, Liquid): 485.18 ± 1.4 J/K/mol; molar heat capacity at constant pressure ([3]; 340 K, Liquid): 491.82 ± 1.4 J/K/mol
3 | CCCCCCCCCCC(=O)OC [methyl undecanoate] | 261.8 ± 0.16 K | 8.65 ± 0.122 kcal/mol | 0.42 ± 0.03 J/K/mol | 3.28 ± 0.08 J/K/mol | 18.49 ± 0.23 J/K/mol | 38.09 ± 0.24 J/K/mol | 59.59 ± 0.32 J/K/mol | 80.21 ± 0.4 J/K/mol | 97.96 ± 0.47 J/K/mol | 113.74 ± 0.54 J/K/mol | 128.03 ± 0.59 J/K/mol | 141.39 ± 0.68 J/K/mol | 152.92 ± 0.71 J/K/mol | 163.81 ± 0.73 J/K/mol | 173.57 ± 0.75 J/K/mol | 182.89 ± 0.77 J/K/mol | 191.72 ± 0.78 J/K/mol | 200.53 ± 0.8 J/K/mol | 209.38 ± 0.82 J/K/mol | 217.78 ± 0.84 J/K/mol | molar heat capacity at constant pressure ([3]; 180 K, Crystal): 226.5 ± 0.85 J/K/mol; molar heat capacity at constant pressure ([3]; 190 K, Crystal): 235.38 ± 0.87 J/K/mol; molar heat capacity at constant pressure ([3]; 200 K, Crystal): 244.52 ± 0.89 J/K/mol; molar heat capacity at constant pressure ([3]; 210 K, Crystal): 253.93 ± 0.91 J/K/mol; molar heat capacity at constant pressure ([3]; 220 K, Crystal): 264.97 ± 0.93 J/K/mol; molar heat capacity at constant pressure ([3]; 230 K, Crystal): 276.95 ± 0.95 J/K/mol; molar heat capacity at constant pressure ([3]; 240 K, Crystal): 291.77 ± 0.98 J/K/mol; molar heat capacity at constant pressure ([3]; 250 K, Crystal): 320.5 ± 1 J/K/mol; molar heat capacity at constant pressure ([3]; 270 K, Liquid): 395.83 ± 1.2 J/K/mol; molar heat capacity at constant pressure ([3]; 280 K, Liquid): 398.95 ± 1.2 J/K/mol; molar heat capacity at constant pressure ([3]; 290 K, Liquid): 402.95 ± 1.2 J/K/mol; molar heat capacity at constant pressure ([3]; 300 K, Liquid): 406.99 ± 1.2 J/K/mol; molar heat capacity at constant pressure ([3]; 310 K, Liquid): 411.22 ± 1.2 J/K/mol; molar heat capacity at constant pressure ([3]; 320 K, Liquid): 416.08 ± 1.2 J/K/mol; molar heat capacity at constant pressure ([3]; 330 K, Liquid): 421.78 ± 1.2 J/K/mol; molar heat capacity at constant pressure ([3]; 340 K, Liquid): 426.55 ± 1.2 J/K/mol; molar heat capacity at constant pressure ([3]; 350 K, Liquid): 431.52 ± 1.3 J/K/mol
